Assay results reported in patent US20260159536A1, “AKR1C3-ACTIVATED DNA ALKYLATING AGENT, AND MEDICAL APPLICATION THEREOF” (ASCENTAWITS PHARMACEUTICALS, LTD., priority 2021, published 2026).
Read-outs that look alike come from different tables or passages of the source.

Experiments:
P-gp = molecular target: T1, P-gp (Homo sapiens, UniProt P08183); test: P-gp substrate evaluation, MDCKII-MDR1 penetration test with or without Verapamil; assay type: in vitro ADME
T1 construct: expressed in transfected cells; host or cells: MDCKII-MDR1 cells
T1 sequence (P08183 whole entry): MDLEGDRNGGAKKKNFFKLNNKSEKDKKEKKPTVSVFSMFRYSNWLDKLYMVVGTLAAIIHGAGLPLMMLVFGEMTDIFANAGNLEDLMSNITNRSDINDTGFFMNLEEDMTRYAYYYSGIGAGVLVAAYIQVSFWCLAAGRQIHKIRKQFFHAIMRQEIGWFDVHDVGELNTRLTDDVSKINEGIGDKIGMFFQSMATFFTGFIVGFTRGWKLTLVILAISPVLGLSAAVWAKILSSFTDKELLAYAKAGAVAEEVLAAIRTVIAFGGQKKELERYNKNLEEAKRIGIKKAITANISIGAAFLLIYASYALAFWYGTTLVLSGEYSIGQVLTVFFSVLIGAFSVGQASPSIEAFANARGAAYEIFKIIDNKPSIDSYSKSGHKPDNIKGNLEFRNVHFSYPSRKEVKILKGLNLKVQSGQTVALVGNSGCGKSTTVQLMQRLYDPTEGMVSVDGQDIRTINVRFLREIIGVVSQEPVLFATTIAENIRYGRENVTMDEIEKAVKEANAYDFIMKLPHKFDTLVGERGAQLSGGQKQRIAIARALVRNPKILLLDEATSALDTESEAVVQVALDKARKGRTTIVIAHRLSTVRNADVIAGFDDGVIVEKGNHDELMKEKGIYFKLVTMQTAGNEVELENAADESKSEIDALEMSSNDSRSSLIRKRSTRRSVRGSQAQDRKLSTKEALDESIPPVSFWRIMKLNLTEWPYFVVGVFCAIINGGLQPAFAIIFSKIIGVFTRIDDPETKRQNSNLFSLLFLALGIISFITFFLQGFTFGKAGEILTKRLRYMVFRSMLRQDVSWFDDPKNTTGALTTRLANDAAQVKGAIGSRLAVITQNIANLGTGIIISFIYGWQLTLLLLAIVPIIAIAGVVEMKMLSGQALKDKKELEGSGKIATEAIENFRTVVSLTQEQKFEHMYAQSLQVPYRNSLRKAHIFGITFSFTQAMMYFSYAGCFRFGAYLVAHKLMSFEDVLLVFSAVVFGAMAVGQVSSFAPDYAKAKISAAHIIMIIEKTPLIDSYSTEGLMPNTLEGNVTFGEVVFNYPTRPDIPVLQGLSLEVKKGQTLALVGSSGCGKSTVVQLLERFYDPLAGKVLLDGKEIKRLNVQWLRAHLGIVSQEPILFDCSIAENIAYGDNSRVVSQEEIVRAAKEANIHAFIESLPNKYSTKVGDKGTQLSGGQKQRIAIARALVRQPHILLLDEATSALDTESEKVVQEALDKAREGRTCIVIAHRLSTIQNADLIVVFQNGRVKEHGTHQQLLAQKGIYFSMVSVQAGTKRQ
Method: The conditions of the incubator were set as 37° C., 5% CO2, and 95% of the relative humidity.
After that, the MDCKII-MDR1 cells can be used for the penetration test.
(1) MDCKII-MDR1 transwell culture plate was taken out from the incubator.
(6) The upper and lower transportations were pooled and then incubated at 37° C. for 2 h.
After the sample tubes were vortexed for 10 min, and centrifuged at 3220 g for 30 min. […] Each sample was adopted to the three parallel incubation.
Efflux Ratio was calculated by the following formula: […]
Recovery was calculated by the following formula: […]

NCIH1755 = test: AKR1C3-dependent cytotoxicity, NSCLC cell line NCIH1755; assay type: cell-based; conditions: Homo sapiens, NCI-H1755
Method: (§1) The tested compound was then added. The compound was dissolved in 100% DMSO at 200 times of the desired final test concentration. When the medicament was added, the compound was further diluted to 4 times of the desired final test concentration by using the complete medium. 50 μL of aliquots of the compound with specific concentration were added to the microwells containing 150 μL of medium, and then the final medicament concentration was obtained. […] The medicament was then washed. […] After the incubation was finished, the Alamar Blue was used to analyze and quantify the living cells.

NCIH2106 = test: AKR1C3-dependent cytotoxicity, NSCLC cell line NCIH2106; assay type: cell-based
Method: as §1

[1] = Liver microsome stability, human; assay type: in vitro ADME; conditions: Human liver microsomes; with the addition of NADPH
Method: (§2) 1) Two individual experiments were performed.
(§3) All experiments were performed in duplicate.

NCI-H1563 = test: AKR1C3-dependent cytotoxicity, NSCLC cell line NCI-H1563; assay type: cell-based; conditions: Homo sapiens
Method: as §1

H460 cells = test: Inhibition of H460 cancer cell proliferation (CTG, 72 h); assay type: cell-based; conditions: Homo sapiens, NCI-H460
Method: If not otherwise specified, IC50 values were measured by the following experimental methods:
c) The cell suspension was added to 96-well plate with 100 μL per well and 2000 cells/well of cell density.
a) Cells were plated for 24 hours, and then the compounds acted singly. 99 μL of growth medium was supplemented per well, and then 1 μL of 200× compound was added, gently shaken to ensure uniform mixing, and then placed in a 37° C., 5% CO2 incubator.
b) The cell plate was placed in the incubator for 72 hours.
b) 100 μL of CTG reagent (CelltiterGlo kit) was added to each well, the plate was placed in a rapid oscillator and shaken for 2 minutes, and then placed at room temperature for 30 minutes away from light.
c) The chemiluminescence signal value was read with Envision instrument.
The IC50 was calculated using GraphPad Prism 8 software and the IC50 (half inhibitory concentration) of the compounds was obtained using the following non-linear fitting formula: […]

NCI-H23 = test: AKR1C3-dependent cytotoxicity, NSCLC cell line NCI-H23; assay type: cell-based; conditions: Homo sapiens
Method: as §1

[2] = Liver microsome stability, monkey; assay type: in vitro ADME; conditions: Monkey liver microsomes; with the addition of NADPH
Method: as §2, §3

[3] = test system: HuPrime model LI6643 human liver cancer; test: In vivo pharmacodynamics, liver cancer LI6643 PDX model (Compound A, Sorafenib, AST-3424; section 4.7); parameters: species or system BALB/c nude mice; conditions: for Tumor volume (x ± S): in mm³
Method: Experiment Instruction: BALB/c nude mice were subcutaneously inoculated with HuPrime® model LI6643 tumor blocks to establish a subcutaneous grafted tumor model of human liver cancer. […] The efficacy was evaluated according to the relative tumor inhibition rate TGI (%), and the safety was evaluated according to the change in body weight and the death of the animals.

NCI-H2228 = test: AKR1C3-dependent cytotoxicity, NSCLC cell line NCI-H2228; assay type: cell-based; conditions: Homo sapiens
Method: as §1

NCI-H1944 = test: AKR1C3-dependent cytotoxicity, NSCLC cell line NCI-H1944; assay type: cell-based; conditions: Homo sapiens
Method: as §1

NCI-H522 = test: AKR1C3-dependent cytotoxicity, NSCLC cell line NCI-H522; assay type: cell-based; conditions: Homo sapiens
Method: as §1

[4] = Liver microsome stability, mouse; assay type: in vitro ADME; conditions: Mouse liver microsomes; with the addition of NADPH
Method: as §2, §3

CAL12T = test: AKR1C3-dependent cytotoxicity, NSCLC cell line CAL12T; assay type: cell-based; conditions: Homo sapiens, CAL-12T
Method: as §1

NCI-H1792 = test: AKR1C3-dependent cytotoxicity, NSCLC cell line NCI-H1792; assay type: cell-based; conditions: Homo sapiens
Method: as §1

[5] = 0.3 mg/kg i.v. QDx5, 2 days off, 2 weeks off, QDx5, Day 21
[6] = 1.25 mg/kg i.v. QWx2, 1 week off, QWx2, Day 21
[7] = AST-3424 1 mg/kg i.v. QDx5, 2 days off, 2 weeks off, QDx5, Day 21

C[C@@H](OP(=O)(N1CC1)N1CC1)c1ccc([N+](=O)[O-])c(Oc2cccc(C(=O)N(C)C)c2)c1 [AST-3424]
P-gp substrate (P-gp; MDCKII-MDR1, with and without Verapamil): Pgp substrate | Papp A→B at 2 h (P-gp; dog, MDCK-MDR1): 1.95 ×10⁻⁶ cm/s | Papp B→A at 2 h (P-gp; dog, MDCK-MDR1): 34.5 ×10⁻⁶ cm/s | recovery at 2 h (P-gp; dog, MDCK-MDR1, Verapamil 0 μM, read-out: Recovery (%) AP-BL): 79.1% | recovery at 2 h (P-gp; dog, MDCK-MDR1, Verapamil 0 μM, read-out: Recovery (%) BL-AP): 90.6% | recovery at 2 h (P-gp; dog, MDCK-MDR1, with Verapamil 100 μM, Verapamil 100 μM, read-out: Recovery (%) AP-BL): 92.6% | recovery at 2 h (P-gp; dog, MDCK-MDR1, with Verapamil 100 μM, Verapamil 100 μM, read-out: Recovery (%) BL-AP): 96.3% | IC50 (NCIH1755): 8.2 nM | IC50 (NCIH2106): > 1000 nM | Percentage remaining after 30 minutes [1]: 10.65% | IC50 (NCI-H1563): 2.5 nM | IC50 (H460 cells): 0.11 nM | IC50 (NCI-H23): > 1000 nM | Percentage remaining after 30 minutes [2]: 0.03% | Relative tumor volume (x ± S) [3, 5]: 1.92 ± 0.2 | T/C (%) [3, 5]: 39.84% | TGI (%) [3, 5]: 60.16% | Tumor volume (x ± S) [3, 5]: 250.47 ± 44.00 | Tumor volume ([3]; 0.3 mg/kg i.v., Day 0): 124.74 mm^3 | Tumor volume ([3]; 0.3 mg/kg i.v., Day 3): 210.50 mm^3 | Tumor volume ([3]; 0.3 mg/kg i.v., Day 7): 242.31 mm^3 | Tumor volume ([3]; 0.3 mg/kg i.v., Day 10): 227.43 mm^3 | Tumor volume ([3]; 0.3 mg/kg i.v., Day 14): 208.00 mm^3 | Tumor volume ([3]; 0.3 mg/kg i.v., Day 17): 223.43 mm^3 | Tumor volume ([3]; 0.3 mg/kg i.v., Day 21): 250.47 mm^3 | Tumor volume ([3]; 0.3 mg/kg i.v., Day 24): 302.15 mm^3 | Tumor volume ([3]; 0.3 mg/kg i.v., Day 28): 386.93 mm^3 | Relative tumor volume (x ± S) [3, 6]: 1.36 ± 0.22 | T/C (%) [3, 6]: 28.14% | TGI (%) [3, 6]: 71.86% | Tumor volume (x ± S) [3, 6]: 169.64 ± 41.89 | Tumor volume ([3]; 1.25 mg/kg i.v., Day 0): 124.62 mm^3 | Tumor volume ([3]; 1.25 mg/kg i.v., Day 3): 205.56 mm^3 | Tumor volume ([3]; 1.25 mg/kg i.v., Day 7): 217.23 mm^3 | Tumor volume ([3]; 1.25 mg/kg i.v., Day 10): 216.04 mm^3 | Tumor volume ([3]; 1.25 mg/kg i.v., Day 14): 187.94 mm^3 | Tumor volume ([3]; 1.25 mg/kg i.v., Day 17): 176.52 mm^3 | Tumor volume ([3]; 1.25 mg/kg i.v., Day 21): 169.64 mm^3 | Tumor volume ([3]; 1.25 mg/kg i.v., Day 24): 174.54 mm^3 | Tumor volume ([3]; 1.25 mg/kg i.v., Day 28): 146.31 mm^3 | Relative tumor volume (x ± S) [3, 7]: 0.66 ± 0.22 | T/C (%) [3, 7]: 13.68% | TGI (%) [3, 7]: 86.32% | Tumor volume (x ± S) [3, 7]: 75.89 ± 21.82 | Tumor volume ([3]; AST-3424 1 mg/kg i.v., Day 0): 124.32 mm^3 | Tumor volume ([3]; AST-3424 1 mg/kg i.v., Day 3): 156.70 mm^3 | Tumor volume ([3]; AST-3424 1 mg/kg i.v., Day 7): 144.82 mm^3 | Tumor volume ([3]; AST-3424 1 mg/kg i.v., Day 10): 110.44 mm^3 | Tumor volume ([3]; AST-3424 1 mg/kg i.v., Day 14): 90.12 mm^3 | Tumor volume ([3]; AST-3424 1 mg/kg i.v., Day 17): 97.62 mm^3 | Tumor volume ([3]; AST-3424 1 mg/kg i.v., Day 21): 75.89 mm^3 | Tumor volume ([3]; AST-3424 1 mg/kg i.v., Day 24): 89.34 mm^3 | Tumor volume ([3]; AST-3424 1 mg/kg i.v., Day 28): 98.43 mm^3 | IC50 (NCI-H2228): 0.21 nM | IC50 (NCI-H1944): 2.3 nM | IC50 (NCI-H522): > 1000 nM | Percentage remaining after 30 minutes [4]: 3.1% | IC50 (CAL12T): 29.1 nM | IC50 (NCI-H1792): 4.5 nM
